pIC50: −log10 of the molar value.
Biological target: T1, MAGL (Homo sapiens, UniProt Q99685)
T1 sequence (Q99685 1-303): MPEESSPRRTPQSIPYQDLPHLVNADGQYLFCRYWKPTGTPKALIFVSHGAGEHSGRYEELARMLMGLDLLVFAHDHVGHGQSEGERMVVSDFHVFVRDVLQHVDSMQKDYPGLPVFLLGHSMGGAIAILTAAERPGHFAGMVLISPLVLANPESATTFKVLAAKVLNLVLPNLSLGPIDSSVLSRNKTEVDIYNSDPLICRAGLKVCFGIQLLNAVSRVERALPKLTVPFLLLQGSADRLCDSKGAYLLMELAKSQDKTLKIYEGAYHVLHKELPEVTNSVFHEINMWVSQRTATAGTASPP
Experiment: 2-AG assay (MAGL inhibitory activity, hydrolysis of 2-arachidonoylglycerol to arachidonic acid followed by mass spectrometry)
Format: biochemical
Settings: 8 μM 2-arachidonoylglycerol, 15 min pre-incubation, 30 min incubation at RT, RapidFire MS readout
Summary of the method: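 Arachidonic acid released from 8 μM 2-arachidonoylglycerol was quantified by online SPE triple-quadrupole MS (negative ESI, 303.1→259.1), normalised to d8-arachidonic acid internal standard. Reaction ran 30 min at RT after 15 min RT compound pre-incubation with […] MAGL in TRIS/EDTA/Tween-20 buffer, 2.5% DMSO.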

pIC50 | SMILES
8.05 | O=C(N1CC2(CC(n3cnc(C4CC4)n3)C2)C1)N1CC2(C1)CN(S(=O)(=O)CC1CCCCC1)C2 [Example 244, [2-(cyclohexylmethylsulfonyl)-2,6-diazaspiro[3.3]heptan-6-yl]-[6-(3-cyclopropyl-1,2,4-triazol-1-yl)-2-azaspiro[3.3]heptan-2-yl]methanone]
8.00 | COc1cccc(S(=O)(=O)N2CC3(CN(C(=O)N4CC5(CC(n6cnc(C7CC7)n6)C5)C4)C3)C2)c1 [Example 245, [6-(3-cyclopropyl-1,2,4-triazol-1-yl)-2-azaspiro[3.3]heptan-2-yl]-[2-(3-methoxyphenyl)sulfonyl-2,6-diazaspiro[3.3]heptan-6-yl]methanone]
7.91 | O=C(N1CC(CNS(=O)(=O)c2cccc(C(F)(F)F)c2)C1)N1CC2(CC(n3cnc(C4CC4)n3)C2)C1 [Example 246, N-[[1-[6-(3-cyclopropyl-1,2,4-triazol-1-yl)-2-azaspiro[3.3]heptane-2-carbonyl]azetidin-3-yl]methyl]-3-(trifluoromethyl)benzenesul fonamide]
7.91 | O=C(N1CC2(CC(n3cnc(C4CC4)n3)C2)C1)N1CC2(C1)CN(S(=O)(=O)NCC1(C(F)(F)F)CC1)C2 [Example 247, 6-[6-(3-cyclopropyl-1,2,4-triazol-1-yl)-2-azaspiro[3.3]heptane-2-carbonyl]-N-[[1-(trifluoromethyl)cyclopropyl]methyl]-2,6-diazaspiro[3.3]heptane-2-sulfonamide]
7.87 | O=C(N1CC(Oc2ccc(C(F)(F)F)nn2)C1)N1CC2(CC(n3cnc(C4CC4)n3)C2)C1 [Example 248, [6-(3-cyclopropyl-1,2,4-triazol-1-yl)-2-azaspiro[3.3]heptan-2-yl]−[3-[6-(trifluoromethyl)pyridazin-3-yl]oxyazetidin-1-yl]methanone]
7.84 | CC(Oc1cnn(C2CN(C(=O)N3CC4(CC(n5cnc(C6CC6)n5)C4)C3)C2)c1)C(F)(F)F (centres unmarked) [Example 249, [6-(3-cyclopropyl-1,2,4-triazol-1-yl)-2-azaspiro[3.3]heptan-2-yl]-[3-[4-(2,2,2-trifluoro-1-methyl-ethoxy)pyrazol-1-yl]azetidin-1-yl]methanone]
7.82 | O=C(N1CC2(CC(n3cnc(C4CC4)n3)C2)C1)N1CC2(C1)CN(S(=O)(=O)c1cccc3nonc13)C2 [Example 250, [2-(2,1,3-benzoxadiazol-4-ylsulfonyl)-2,6-diazaspiro[3.3]heptan-6-yl]-[6-(3-cyclopropyl-1,2,4-triazol-1-yl)-2-azaspiro[3.3]heptan-2-yl]methanone]
7.81 | COc1ccccc1S(=O)(=O)N1CC2(CN(C(=O)N3CC4(CC(n5cnc(C6CC6)n5)C4)C3)C2)C1 [Example 251, [6-(3-cyclopropyl-1,2,4-triazol-1-yl)-2-azaspiro[3.3]heptan-2-yl]-[2-(2-methoxyphenyl)sulfonyl-2,6-diazaspiro[3.3]heptan-6-yl]methanone]
7.79 | O=C(N1CC(c2ccc(C3(c4nnn[nH]4)CC3)cc2)C1)N1CC2(CC(n3cnc(C4CC4)n3)C2)C1 [Example 252, [6-(3-cyclopropyl-1,2,4-triazol-1-yl)-2-azaspiro[3.3]heptan-2-yl]-[3-[4-[1-(1H-tetrazol-5-yl)cyclopropyl]phenyl]azetidin-1-yl]methanone]
7.79 | O=C(N1CCC(CNS(=O)(=O)c2ccc(C(F)(F)F)cc2)CC1)N1CC2(CC(n3cnc(C4CC4)n3)C2)C1 [Example 253]
7.77 | O=C(N1CC(Oc2cnc(Cl)c(C3CC3)c2)C1)N1CC2(CC(n3cnc(C4CC4)n3)C2)C1 [Example 254, [3-[(6-chloro-5-cyclopropyl-3-pyridyl)oxy]azetidin-1-yl]-[6-(3-cyclopropyl-1,2,4-triazol-1-yl)-2-azaspiro[3.3]heptan-2-yl]methanone]
7.76 | O=C(N1CC2(CC(n3cnc(C4CC4)n3)C2)C1)N1CC2(C1)CN(S(=O)(=O)c1ccc(C(F)(F)F)nc1)C2 [Example 255, [6-(3-cyclopropyl-1,2,4-triazol-1-yl)-2-azaspiro[3.3]heptan-2-yl]-[2-[[6-(trifluoromethyl)-3-pyridyl]sulfonyl]-2,6-diazaspiro[3.3]heptan-6-yl]methanone]
7.76 | O=C(N1CC2(CC(n3cnc(C4CC4)n3)C2)C1)N1CC2(C1)CN(S(=O)(=O)NCc1ccc(F)cc1)C2 [Example 256, 6-[6-(3-cyclopropyl-1,2,4-triazol-1-yl)-2-azaspiro[3.3]heptane-2-carbonyl]-N-[(4-fluorophenyl)methyl]-2,6-diazaspiro[3.3]heptane-2-sulfonamide]
7.74 | NS(=O)(=O)c1ccccc1CN1CC2(C1)CN(C(=O)N1CC3(CC(n4cnc(C5CC5)n4)C3)C1)C2 [Example 257, 2-[[2-[6-(3-cyclopropyl-1,2,4-triazol-1-yl)-2-azaspiro[3.3]heptane-2-carbonyl]-2,6-diazaspiro[3.3]heptan-6-yl]methyl] benzenesulfonamide]
7.71 | O=C(N1CC2(CC(n3cnc(C4CC4)n3)C2)C1)N1CC2(CN(Cc3ncc(F)cc3F)C2)C1 [Example 258, [6-(3-cyclopropyl-1,2,4-triazol-1-yl)-2-azaspiro[3.3]heptan-2-yl]-[6-[(3,5-difluoro-2-pyridyl)methyl]-2,6-diazaspiro[3.3]heptan-2-yl]methanone]
7.66 | O=C(N1CCC(CNS(=O)(=O)c2ccc(OC(F)(F)F)cc2)CC1)N1CC2(CC(n3cnc(C4CC4)n3)C2)C1 [Example 259, N-[[1-[6-(3-cyclopropyl-1,2,4-triazol-1-yl)-2-azaspiro[3.3]heptane-2-carbonyl]-4-piperidyl]methyl]-4-(trifluoromethoxy) benzenesulfonamide]
7.64 | O=C(N1CC2(CC(n3cnc(C4CC4)n3)C2)C1)N1CC2(C1)CN(S(=O)(=O)NC1(C(F)(F)F)CC1)C2 [Example 260, 6-[6-(3-cyclopropyl-1,2,4-triazol-1-yl)-2-azaspiro[3.3]heptane-2-carbonyl]-N-[1-(trifluoromethyl)cyclopropyl]-2,6-diazaspiro[3.3]heptane-2-sulfonamide]
7.62 | O=C(N1CC(c2ccn(CC(F)(F)F)c(=O)c2)C1)N1CC2(CC(n3cnc(C4CC4)n3)C2)C1 [Example 261, 4-[1-[6-(3-cyclopropyl-1,2,4-triazol-1-yl)-2-azaspiro[3.3]heptane-2-carbonyl]azetidin-3-yl]-1-(2,2,2-trifluoroethyl)pyridin-2-one]
7.60 | O=C(N1CC(NCc2ccc(C(F)(F)F)cc2F)C1)N1CC2(CC(n3cnc(C4CC4)n3)C2)C1 [Example 262, [6-(3-cyclopropyl-1,2,4-triazol-1-yl)-2-azaspiro[3.3]heptan-2-yl]-[3-[[2-fluoro-4-(trifluoromethyl)phenyl]methylamino]azetidin-1-yl]methanone]
7.57 | O=C(N1CC2(CC(n3cnc(C4CC4)n3)C2)C1)N1CC2(C1)CN(S(=O)(=O)c1cnccc1C(F)(F)F)C2 [Example 263, [6-(3-cyclopropyl-1,2,4-triazol-1-yl)-2-azaspiro[3.3]heptan-2-yl]-[2-[[4-(trifluoromethyl)-3-pyridyl]sulfonyl]-2,6-diazaspiro[3.3]heptan-6-yl]methanone]
7.57 | COC(=O)c1ccccc1S(=O)(=O)N1CC2(CN(C(=O)N3CC4(CC(n5cnc(C6CC6)n5)C4)C3)C2)C1 [Example 264, methyl 2-[[6-[6-(3-cyclopropyl-1,2,4-triazol-1-yl)-2-azaspiro[3.3]heptane-2-carbonyl]-2,6-diazaspiro[3.3]heptan-2-yl]sulfonyl]benzoate]
7.56 | O=C(N1CC2(CC(n3cnc(C4CC4)n3)C2)C1)N1CC2(C1)CN(S(=O)(=O)Cc1ccccc1)C2 [Example 265, (2-benzylsulfonyl-2,6-diazaspiro[3.3]heptan-6-yl)-[6-(3-cyclopropyl-1,2,4-triazol-1-yl)-2-azaspiro[3.3]heptan-2-yl]methanone]
7.54 | CS(=O)(=O)c1ccc(COC2CN(C(=O)N3CC4(CC(n5cnc(C6CC6)n5)C4)C3)C2)c(F)c1 [Example 266, [6-(3-cyclopropyl-1,2,4-triazol-1-yl)-2-azaspiro[3.3]heptan-2-yl]-[3-[(2-fluoro-4-methylsulfonyl-phenyl)methoxy]azetidin-1-yl]methanone]
7.51 | O=C(N1CC2(CC(Nc3ccc(C(F)(F)F)nn3)C2)C1)N1CC2(CC(n3cnc(C4CC4)n3)C2)C1 [Example 267, [6-(3-cyclopropyl-1,2,4-triazol-1-yl)-2-azaspiro[3.3]heptan-2-yl]-[6-[[6-(trifluoromethyl)pyridazin-3-yl]amino]-2-azaspiro[3.3]heptan-2-yl]methanone]
7.49 | O=C(N1CC2(CC(n3cnc(C4CC4)n3)C2)C1)N1CC2(C1)CN(S(=O)(=O)c1cncc(C(F)(F)F)c1)C2 [Example 268, [6-(3-cyclopropyl-1,2,4-triazol-1-yl)-2-azaspiro[3.3]heptan-2-yl]-[2-[[5-(trifluoromethyl)-3-pyridyl]sulfonyl]-2,6-diazaspiro[3.3]heptan-6-yl]methanone]
7.49 | CC1(NS(=O)(=O)N2CC3(CN(C(=O)N4CC5(CC(n6cnc(C7CC7)n6)C5)C4)C3)C2)CC1 [Example 269, 6-[6-(3-cyclopropyl-1,2,4-triazol-1-yl)-2-azaspiro[3.3]heptane-2-carbonyl]-N-(1-methylcyclopropyl)-2,6-diazaspiro[3.3]heptane-2-sulfonamide]
